The results in this text go back to the supplement of paper PMC8967900.
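Note: ALL cell lines in 384-well plates, five doses spanning 10,000-fold, each plate scaled between vehicle and 100 µmol/L benzalkonium chloride controls, sDSS an adapted area-under-curve metric.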

The test system of one assay is 380. The assay can be described thus: selective drug sensitivity score (sDSS, relative to normal bone marrow) (sDSS (score)); higher = more potent and effective on the cell line relative to normal bone marrow cells. Particulars: 72 h.
Turning to `C/C=C1\NC(=O)[C@H]2CSSCC/C=C/[C@H](CC(=O)N[C@H](C(C)C)C(=O)N2)OC(=O)[C@H](C(C)C)NC1=O` [Romidepsin] (top concentration 1000 nM), the “selective drug sensitivity score” value came to 8.56.
On the same count and under the same terms, the figure for `CN(C)CCOc1ccc(/C(=C(/CCCl)c2ccccc2)c2ccccc2)cc1` [Toremifene] (top concentration 10000 nM) is 1.58; for `CCCCc1nc2cc(/C=C/C(=O)NO)ccc2n1CCN(CC)CC` [Pracinostat] (top concentration 10000 nM) it is 13.2; for `Cn1ncc(Cl)c1-c1cc(C(=O)N[C@H](CN)Cc2cccc(F)c2)sc1Cl` [Afuresertib] (top concentration 1000 nM) it is 2.46.
`Cc1cc(-c2nc(-c3ccc(OC(F)(F)F)cc3)no2)nn1Cc1ccnc(N2CCN(C3CC3)CC2)c1` [BAY_87-2243] (top concentration 1000 nM): the “selective drug sensitivity score” value was -8.66.
On the same count and under the same terms, the figure for `CNc1nc(-c2ccc3c(N)n[nH]c3c2)cc(N2C[C@@H](C(=O)NC3CCCCC3)CC[C@H]2C)n1` (top concentration 10000 nM) is -0.14; for `CN1CC[C@H](c2c(O)cc(O)c3c(=O)cc(-c4ccccc4Cl)oc23)[C@H](O)C1` [Alvocidib] (top concentration 10000 nM) it is -4.3; for `Cc1cc2c(C(C)C)c(O)c(O)c(C=O)c2c(O)c1-c1c(C)cc2c(C(C)C)c(O)c(O)c(C=O)c2c1O` [AT-101] (top concentration 100000 nM) it is -0.22.
Still for that read-out and setting: the figure for `Cc1ccc(C(=O)Nc2cccc(C(F)(F)F)c2)cc1Nc1nc(-c2cccnc2)nc2c1cnn2C` [NVP-BHG712] (top concentration 10000 nM) is 1.28.
Turning to `COC[C@H](NC(=O)c1cnc(C)s1)C(=O)N[C@@H](COC)C(=O)N[C@@H](Cc1ccccc1)C(=O)[C@@]1(C)CO1` [Oprozomib] (top concentration 2500 nM), the “selective drug sensitivity score” value came to 0.3.
Consider `Cc1ccc(C(=O)N(CCCN)[C@@H](c2oc3cc(Cl)ccc3c(=O)c2Cc2ccccc2)C(C)C)cc1` (top concentration 100 nM), for which the “selective drug sensitivity score” value worked out at 1.46.
Take `CCn1c(C(=O)N(C2CC2)C2CC2)cc2c3c(ncn3C)c(Nc3cc(C)n(C)n3)nc21` (top concentration 10000 nM): the “selective drug sensitivity score” value was -4.36.
As to `Nc1nc(Cl)nc2c1ncn2[C@@H]1O[C@H](CO)[C@@H](O)[C@@H]1F` [Clofarabine] (top concentration 10000 nM), the “selective drug sensitivity score” value stood at 13.4.
Same read-out and setting: the figure for `Cc1ccc(C(=O)Nc2ccc(Oc3cc4cnn(C)c4cc3-c3cn[nH]c3)c(F)c2)c(=O)n1-c1ccc(F)cc1` [Merestinib] (top concentration 1000 nM) is -0.62.
The same measure, in the same setting: the figure for `Nc1ncn([C@@H]2O[C@H](CO)[C@@H](O)[C@H]2O)c(=O)n1` [Azacitidine] (top concentration 10000 nM) is 5.44; for `CC(C)c1cc(-c2n[nH]c(=O)n2-c2ccc3c(ccn3C)c2)c(O)cc1O` [Ganetespib] (top concentration 1000 nM) it is 2.74.
The same measure, in the same setting: the figure for `C[C@]1(c2nc3c(C(N)=O)cccc3[nH]2)CCCN1` [Veliparib] (top concentration 10000 nM) is -2.78.

Another assay concerns ALL-PO. The description is as above. Particulars: 72 h.
Consider `C/C=C1\NC(=O)[C@H]2CSSCC/C=C/[C@H](CC(=O)N[C@H](C(C)C)C(=O)N2)OC(=O)[C@H](C(C)C)NC1=O` [Romidepsin] (top concentration 1000 nM), for which the “selective drug sensitivity score” value was 6.96.
Same read-out and setting: the figure for `CN(C)CCOc1ccc(/C(=C(/CCCl)c2ccccc2)c2ccccc2)cc1` [Toremifene] (top concentration 10000 nM) is 3.18; for `CCCCc1nc2cc(/C=C/C(=O)NO)ccc2n1CCN(CC)CC` [Pracinostat] (top concentration 10000 nM) it is 5.58.
The same measure, in the same setting: the figure for `Cn1ncc(Cl)c1-c1cc(C(=O)N[C@H](CN)Cc2cccc(F)c2)sc1Cl` [Afuresertib] (top concentration 1000 nM) is 4.26; for `Cc1cc(-c2nc(-c3ccc(OC(F)(F)F)cc3)no2)nn1Cc1ccnc(N2CCN(C3CC3)CC2)c1` [BAY_87-2243] (top concentration 1000 nM) it is 5.54; for `CNc1nc(-c2ccc3c(N)n[nH]c3c2)cc(N2C[C@@H](C(=O)NC3CCCCC3)CC[C@H]2C)n1` (top concentration 10000 nM) it is 8.86.
Turning to `CN1CC[C@H](c2c(O)cc(O)c3c(=O)cc(-c4ccccc4Cl)oc23)[C@H](O)C1` [Alvocidib] (top concentration 10000 nM), the “selective drug sensitivity score” value is -6.7.
For the molecule `Cc1cc2c(C(C)C)c(O)c(O)c(C=O)c2c(O)c1-c1c(C)cc2c(C(C)C)c(O)c(O)c(C=O)c2c1O` [AT-101] (top concentration 100000 nM), the “selective drug sensitivity score” value came out at 8.98.
The same measure, in the same setting: the figure for `Cc1ccc(C(=O)Nc2cccc(C(F)(F)F)c2)cc1Nc1nc(-c2cccnc2)nc2c1cnn2C` [NVP-BHG712] (top concentration 10000 nM) is 2.48.
Consider `COC[C@H](NC(=O)c1cnc(C)s1)C(=O)N[C@@H](COC)C(=O)N[C@@H](Cc1ccccc1)C(=O)[C@@]1(C)CO1` [Oprozomib] (top concentration 2500 nM), for which the “selective drug sensitivity score” value stood at 0.8.
Same read-out and setting: the figure for `Cc1ccc(C(=O)N(CCCN)[C@@H](c2oc3cc(Cl)ccc3c(=O)c2Cc2ccccc2)C(C)C)cc1` (top concentration 100 nM) is -0.24.
Still for that read-out and setting: the figure for `CCn1c(C(=O)N(C2CC2)C2CC2)cc2c3c(ncn3C)c(Nc3cc(C)n(C)n3)nc21` (top concentration 10000 nM) is 8.14; for `Nc1nc(Cl)nc2c1ncn2[C@@H]1O[C@H](CO)[C@@H](O)[C@@H]1F` [Clofarabine] (top concentration 10000 nM) it is 1.2; for `Cc1ccc(C(=O)Nc2ccc(Oc3cc4cnn(C)c4cc3-c3cn[nH]c3)c(F)c2)c(=O)n1-c1ccc(F)cc1` [Merestinib] (top concentration 1000 nM) it is 15.2.
As for `Nc1ncn([C@@H]2O[C@H](CO)[C@@H](O)[C@H]2O)c(=O)n1` [Azacitidine] (top concentration 10000 nM), the “selective drug sensitivity score” value is 6.94.
Regarding `CC(C)c1cc(-c2n[nH]c(=O)n2-c2ccc3c(ccn3C)c2)c(O)cc1O` [Ganetespib] (top concentration 1000 nM), the “selective drug sensitivity score” value was determined as 3.84.
The same measure, in the same setting: the figure for `C[C@]1(c2nc3c(C(N)=O)cccc3[nH]2)CCCN1` [Veliparib] (top concentration 10000 nM) is -1.78.

Another assay has as its system ALL-SIL. The description is as above. Particulars: 72 h.
Regarding `C/C=C1\NC(=O)[C@H]2CSSCC/C=C/[C@H](CC(=O)N[C@H](C(C)C)C(=O)N2)OC(=O)[C@H](C(C)C)NC1=O` [Romidepsin] (top concentration 1000 nM), the “selective drug sensitivity score” value amounted to 3.26.
The same measure, in the same setting: the figure for `CN(C)CCOc1ccc(/C(=C(/CCCl)c2ccccc2)c2ccccc2)cc1` [Toremifene] (top concentration 10000 nM) is 1.28; for `CCCCc1nc2cc(/C=C/C(=O)NO)ccc2n1CCN(CC)CC` [Pracinostat] (top concentration 10000 nM) it is 5.18; for `Cn1ncc(Cl)c1-c1cc(C(=O)N[C@H](CN)Cc2cccc(F)c2)sc1Cl` [Afuresertib] (top concentration 1000 nM) it is 3.66.
The same measure, in the same setting: the figure for `Cc1cc(-c2nc(-c3ccc(OC(F)(F)F)cc3)no2)nn1Cc1ccnc(N2CCN(C3CC3)CC2)c1` [BAY_87-2243] (top concentration 1000 nM) is 10.1; for `CNc1nc(-c2ccc3c(N)n[nH]c3c2)cc(N2C[C@@H](C(=O)NC3CCCCC3)CC[C@H]2C)n1` (top concentration 10000 nM) it is 1.36; for `CN1CC[C@H](c2c(O)cc(O)c3c(=O)cc(-c4ccccc4Cl)oc23)[C@H](O)C1` [Alvocidib] (top concentration 10000 nM) it is -3.3.
On the same count and under the same terms, the figure for `Cc1cc2c(C(C)C)c(O)c(O)c(C=O)c2c(O)c1-c1c(C)cc2c(C(C)C)c(O)c(O)c(C=O)c2c1O` [AT-101] (top concentration 100000 nM) is 5.08.
